Experimental data from US12036224B2, “Formulations, methods, kits, and dosage forms for treating atopic dermatitis and for improved stability of an active pharmaceutical ingredient” (Libertas Bio, Inc., priority 2017, dated 2024).
In brackets after ≈: the same amount, converted by molar mass. Entries after “also recorded” stand apart in the source; their conditions may differ.

Assays:
[1] = tested on: rodent xenograft models of NHL and other hematologic malignancies; experiment: Rodent xenograft models of NHL and other hematologic malignancies; assay type: in vivo
Description: (§1) A formulation of the disclosure comprising 2-(1-(4-((4-(4-hydroxypiperidin-1-yl)phenyl)amino)-5-oxo-5,6-dihydropyrimido[4,5-d]pyridazin-2-yl)piperidin-4-yl)acetonitrile comprises a potent inhibitor of Spleen Tyrosine Kinase (SYK) and Janus Kinases (JAK).

SYK = SYK (Homo sapiens, UniProt P43405); experiment: Pre-clinical kinase inhibition, SYK; assay type: biochemical; conditions: pre-clinical studies
Description: as §1

[2] = HCl pH dependent solubility profile study; assay type: physicochemical; conditions: thermodynamic from solid
Description: (§2) Analytical studies for 2-(1-(4-((4-(4-hydroxypiperidin-1-yl)phenyl)amino)-5-oxo-5,6-dihydropyrimido[4,5-d]pyridazin-2-yl)piperidin-4-yl)acetonitrile are provided below in Tables 1-3: Table 1 provides the results of an HCl pH dependent solubility profile study, Table 2 provides the results of an HCl solubility profile in organic solvents, and Table 3 provides the results of an HCl stress study.

[3] = Phase 1/2 trial in solid tumors and hematologic malignancies: pharmacokinetics; assay type: in vivo, human
Experimental: (§3) Methods: Phase 1/2 clinical trial in patients with solid tumors and hematologic malignancies evaluates escalating oral doses of the formulation disclosed herein at 10, 20, 30, 40, 50, 75 and 100 mg BID and 80 and 120 mg QD mg (NCT02440685). Phase 1 allows patients with solid tumors or hematologic malignancies; Phase 2 allows only patients with diffuse large B-Cell lymphoma (DLBCL), follicular lymphoma (FL) or mantle cell lymphoma (MCL). Endpoints include safety, tolerability, pharmacokinetics, serum markers of inflammation, and response using RECIST or Lugano Classification System, […]

JAK = experiment: Pre-clinical kinase inhibition, JAK; assay type: biochemical; conditions: pre-clinical studies
Description: as §1

HCl stress study = assay type: physicochemical
Description: as §2

[4] = Phase 1b study in atopic dermatitis: pharmacokinetics; assay type: in vivo, human
Experimental: Upon signing the informed consent, the each subject underwent screening assessments from Day −30 to Day −1 prior to study drug administration. On Day 1 (baseline), eligible subjects were randomized, subjected to the Day 1/baseline assessments and received Compound 1 at 20, 40 or 80 mg or placebo, dependent on cohort and randomization schedule. At this visit, PK/PD samples were collected at predose and up to 8 hours (or up to 12 hours at selected sites). Subjects were monitored in clinic for 2 hours following the first study drug administration. Subjects returned to the clinic on Day 2 for PK and PD samples (24 hours post dose).
Pre-dose PK and PD samples were collected on Days 8 and 29 (last day of treatment). On Day 15, PK/PD samples were also collected at pre-dose and up to 8 hours post-dose and subjects returned on Day 16 for PK and PD samples (24 hours post dose). Subjects came in for additional safety assessments on Days 8, 22 and 29, as well as at the end of the follow up period (Day 43). Disease assessments were conducted on Days 1, Day 15 and Day 29.
Assessment of PK variables: The following PK parameters for Compound 1 were derived from the concentration-time data of Compound 1 after the first and Day 15 dose administration in the fasted state, as data allowed: Cmax, tmax, AUC0-∞, AUC0-t, AUC0-24, λz, t1/2, CL/F and Vd/F

[5] = tested on: patients with solid tumors and hematologic malignancies; experiment: Phase 1/2 trial in solid tumors and hematologic malignancies: safety and tolerability; assay type: in vivo, human
Experimental: as §3

[6] = tested on: IL-17-SYK mediated CCL20 release, human keratinocytes; experiment: Inhibition of IL17 mediated CCL20 release in keratinocytes; assay type: cell-based; conditions: single donor, n=3
Experimental: In FIG. 12, each bar represents mean and SEM for 3 replicates (n=3) of a single donor. FIG. 13 is a graph showing average weekly change in pruritus (NRS) for a placebo, and Compound 1 in the doses of 20 mg, 40 mg and 80 mg.

[7] = human, plasma, oral, day 15, 20, 40 and 80 mg
[8] = 10 mg-100 mg BID and 80-120 mg QD

For `N#CCC1CCN(c2nc(Nc3ccc(N4CCC(O)CC4)cc3)c3c(=O)[nH]ncc3n2)CC1` [Compound 1, 2-(1-(4-((4-(4-hydroxypiperidin-1-yl)phenyl)amino)-5-oxo-5,6-dihydropyrimido[4,5-d]pyridazin-2-yl)piperidin-4-yl)acetonitrile], the tumor growth [1] was “suppresses tumor growth”, the “IC50 against SYK” value (SYK) was “low nM” and the solubility ([2]; aqueous buffer, pH 4.5 Acetate Buffer, initial pH 4.50, end pH 4.56) was 2.9 µg/mL (≈ 6.3 µM). The solubility ([2]; aqueous buffer, pH 5.5 Acetate Buffer, initial pH 5.52, end pH 5.12) was 1 µg/mL (≈ 2.17 µM), the solubility ([2]; aqueous buffer, pH 6.8 Phosphate Buffer, initial pH 6.80, end pH 6.86) was 2.7 µg/mL (≈ 5.86 µM) and the solubility ([2]; aqueous buffer, pH 7.5 Phosphate Buffer, initial pH 7.55, end pH 6.96) was 0.7 µg/mL (≈ 1.52 µM). For the same molecule, the solubility ([2]; simulated gastric fluid, 0.1N HCl, end pH 1.23) was 10800 µg/mL (≈ 23500 µM), the solubility ([2]; Water, end pH 2.62) was 941 µg/mL (≈ 2040 µM) and the “systemic exposure (in words)” value ([3]; 80 mg QD) was “High systemic exposure”. For the same molecule, the half-life ([3]; human, in vivo, steady-state, 40 mg BID, oral) was 18 h, the AUC(0-t) ([3]; human, in vivo, steady-state, 40 mg BID, oral, read-out: AUC (0-12 h)) was 6.3 µM·h and the Cmax ([3]; steady-state, 40 mg BID, oral) was 700 nM. For the same molecule, the “IC50 against JAK” value (JAK) was “low nM”, the “% API based on Peak Area %” value (HCl stress study; 1N HCl, rt, 24 hr) was 100.00% and the “% API based on Peak Area %” value (HCl stress study; 1N NaOH, rt, 24 hr) was 99.54%. The “% API based on Peak Area %” value (HCl stress study; 3% H2O2, rt, 30 hr) was 83.00%, the “% API based on Peak Area %” value (HCl stress study; 80° C., 24 hr) was 99.93% and the “% API based on Peak Area %” value (HCl stress study; UV, 23 hr) was 99.80%. For the same molecule, the “Dose dependence of exposure (Cmax, AUC), in words” value ([4]; 20, 40 and 80 mg once daily) was “dose-dependent Cmax and AUC; also recorded: dose-dependent exposure”, the “Inter- and intra-individual variability of PK, in words” value ([4]; 20, 40 and 80 mg once daily) was “low inter- and intra-individual variability; also recorded: minimum individual variability and accumulation” and the Tmax [4, 7] was 2 to 4 h. The half-life [4, 7] was 10 to 14 h, the “dose limiting adverse events” value [5, 8] was “No dose limiting adverse events” and the tolerability [5, 8] was “safe and well tolerated”. For the same molecule, the MTD ([5]; dose escalation continues) was “has not been reached”, the “grade of most drug-related adverse events” value ([5]; e.g. headache, fatigue) was “Gr 1/2” and the “inhibition of IL-17-SYK mediated CCL20 release” value [6] was “inhibits IL-17-SYK mediated CCL20 release, from human keratinocytes, at levels similar to IL17 neutralizing antibodies”.
